# Assay results taken from patent publication US20120129842A1, “BISTHIAZOLE INHIBITORS OF PRO-MATRIX METALLOPROTEINASE ACTIVATION” (priority 2010, published 2012).
# Tests used:
# [1] = target: T1, full-length proMMP9(1-707) (SEQ ID NO:1) (Homo sapiens, UniProt P14780, R574P); assay: proMMP9/MMP3 P126 Activation Assay; type: biochemical; conditions: 20 nM proMMP9, 20 nM MMP3, 80 min 37° C.
# T1 construct: made in house; host or cells: HEK293 (proMMP9, secreted); E. coli (MMP3)
# Experimental: The reaction volume was 50 μL. […] Reactivity of residual MMP3 towards P-126 substrate was minimal under these conditions.
# proMMP9 = target: T2, proMMP9 (Rattus norvegicus, UniProt P50282); assay: Activation of proMMP9 in rat synoviocyte cultures (Western blot); type: cell-based; conditions: 80 kD band, pAb-1246
# T2 construct: endogenous in cells; host or cells: primary synoviocytes from arthritic female Lewis rats, TNFα-stimulated in collagen gels
# T2 sequence (P50282 20-708 limits assumed): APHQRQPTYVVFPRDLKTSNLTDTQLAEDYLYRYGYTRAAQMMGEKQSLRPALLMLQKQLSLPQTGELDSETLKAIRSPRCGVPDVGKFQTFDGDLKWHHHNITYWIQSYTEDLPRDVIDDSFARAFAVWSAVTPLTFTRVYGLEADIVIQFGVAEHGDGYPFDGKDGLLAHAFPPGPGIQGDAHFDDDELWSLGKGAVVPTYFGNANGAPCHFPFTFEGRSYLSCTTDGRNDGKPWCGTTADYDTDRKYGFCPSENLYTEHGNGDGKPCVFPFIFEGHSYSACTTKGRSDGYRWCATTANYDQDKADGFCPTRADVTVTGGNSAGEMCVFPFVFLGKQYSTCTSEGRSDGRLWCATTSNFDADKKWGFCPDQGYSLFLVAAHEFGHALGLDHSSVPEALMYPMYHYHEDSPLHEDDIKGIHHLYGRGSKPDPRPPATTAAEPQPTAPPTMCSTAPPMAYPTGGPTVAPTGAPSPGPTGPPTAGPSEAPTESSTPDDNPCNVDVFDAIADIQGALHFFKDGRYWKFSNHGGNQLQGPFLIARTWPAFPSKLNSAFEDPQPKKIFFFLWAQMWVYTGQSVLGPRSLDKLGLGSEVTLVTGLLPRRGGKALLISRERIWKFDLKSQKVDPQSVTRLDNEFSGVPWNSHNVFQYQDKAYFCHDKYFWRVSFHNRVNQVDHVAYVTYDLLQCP
# Description: A primary synoviocytes line was derived from the periarticular tissue of arthritic rats. Arthritis was induced in female Lewis rats following an i.p. administration of streptococcal cell wall peptidoglycan polysaccharides (J Exp Med 1977; 146:1585-1602). Rats with established arthritis were sacrificed, and hind-limbs were severed, immersed briefly in 70% ethanol, and placed in a sterile hood. The skin was removed and the inflamed tissue surrounding the tibia-tarsal joint was harvested using a scalpel. Tissue from six rats was pooled, minced to approximately 8 mm^3 pieces, and cultured in Dulbecco's Modified Eagle's Medium (DMEM) containing 15% fetal calf serum (FCS). In the following weeks, cells migrated out of the tissue piece, proliferated, and formed a monolayer of adherent cells. The synoviocytes were lifted from culture plates with 0.05% trypsin and passaged weekly at 1:4 ratios in DMEM containing 10% FCS. Synoviocytes were used at passage 9 to investigate the ability of Example 64 to inhibit the maturation of MMP9 to active form.
# Rat synoviocytes spontaneously expressed and activated MMP9 when cultured in collagen gels and stimulated with tumor necrosis factor-alpha (TNFα) (FIG. 1 and Table 3). Eight volumes of an ice-cold solution of 3.8 mg/mL rat tail collagen (Sigma Cat #C3867-1VL) were mixed with 1 volume of 1 M sodium bicarbonate and 1 volume of 10× Roswell Park Memorial Institute medium. The pH of the mixture was adjusted to pH 7 with 1 N sodium hydroxide and equal volumes of the pH-adjusted collagen solution were mixed with DMEM containing 0.8 million synoviocytes per mL. One half mL volumes were dispensed into Costar 24-well culture dishes and placed for one hr at 37° C. and 5% CO2, during which time the collagen solution formed a gel. Individual gels were dislodged into wells of 12-well Costar plates containing 1 mL/well of DMEM adjusted to contain 0.05% BSA and 100 ng/mL mouse TNFα (R&D Systems Cat #410-MT-010). […] After overnight culture at 37° C. and 5% CO2, wells were adjusted to contain an additional 0.5 mL of DMEM containing 0.05% BSA and Example 64 at 4× the final desired concentration (final culture volumes were 2 mL). The plates were cultured an additional 48 hrs, at which time 1 mL of conditioned media were harvested into fresh eppendorf tubes containing 40 μL/mL of a 50% slurry of gelatin-conjugated sepharose (GE Healthcare Cat #17-0956-01). Samples were rotated for 2 hrs at 4° C. before centrifugation 1 min×200 g. Supernatants were discarded. The gelatin-sepharose pellets were washed once with 1 mL of ice cold DMEM, resuspended in 50 μL of 2× reducing Leamli buffer and heated 5 min at 95° C. […] Chemiluminesence signal was analyzed using a ChemiDoc imaging system (BioRad Laboratories) and Quantity One® image software. […]
# T1 sequence (P14780 20-707 R574P): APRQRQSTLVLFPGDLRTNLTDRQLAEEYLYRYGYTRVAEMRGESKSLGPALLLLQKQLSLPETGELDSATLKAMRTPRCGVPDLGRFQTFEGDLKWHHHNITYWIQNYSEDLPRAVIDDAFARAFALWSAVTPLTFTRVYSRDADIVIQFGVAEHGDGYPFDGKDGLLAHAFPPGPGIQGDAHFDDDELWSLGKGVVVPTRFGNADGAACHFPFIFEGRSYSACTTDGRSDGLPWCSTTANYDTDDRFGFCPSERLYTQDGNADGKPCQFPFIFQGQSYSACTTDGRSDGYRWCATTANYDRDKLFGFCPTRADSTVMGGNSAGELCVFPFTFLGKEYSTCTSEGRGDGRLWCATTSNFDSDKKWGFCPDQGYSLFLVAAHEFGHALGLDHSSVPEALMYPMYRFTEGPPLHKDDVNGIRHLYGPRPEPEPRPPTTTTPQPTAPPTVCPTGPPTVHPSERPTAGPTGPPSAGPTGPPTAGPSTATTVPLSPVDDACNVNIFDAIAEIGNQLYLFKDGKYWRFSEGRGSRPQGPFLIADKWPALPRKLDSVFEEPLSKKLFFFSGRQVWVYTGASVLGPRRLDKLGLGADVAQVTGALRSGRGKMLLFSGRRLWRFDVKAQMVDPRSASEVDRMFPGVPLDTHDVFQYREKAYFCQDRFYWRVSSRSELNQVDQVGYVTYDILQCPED
structure (smiles),measurement,setting,value
"Cc1nc(C)c(-c2csc(Nc3cc(S(N)(=O)=O)ccc3OC(C)C)n2)s1 [Example 64, 3-(2′,4′-Dimethyl-[4,5′]bithiazolyl-2-ylamino)-4-isopropoxy-benzenesulfonamide.HBr]",IC50,[1],180 nM
same,inhibition at 0.37 µM,proMMP9; 0.37 μM,12%
same,inhibition at 1.1 µM,proMMP9; 1.1 μM,46%
same,inhibition at 3.3 µM,proMMP9; 3.3 μM,86%
same,inhibition at 10 µM,proMMP9; 10 μM,97%
